Data reported in US7935349B2, “CRMP4b inhibitory peptide” (The Royal Institution for the Advancement of …, priority 2006, dated 2011).

What was measured:
[1] = tested on: dissociated E13 chick DRG neurons; experiment: Neurite outgrowth assay on laminin (control) substrate, HSV-infected neurons; format: cell-based; settings: introduced via recombinant HSV, normalized to GFP-infected neurons, FIG. 8b, c
Experimental: (§1) For neurite outgrowth assays, myelin was dried down on poly-L-lysine-coated substrates. Substrates were washed and coated with 10 μg/ml laminin for 1 hr. For outgrowth on aggrecan, poly-L-lysine-coated substrates were coated with aggrecan and 10 μg/ml laminin for 2 hr at 37° C. Dissociated E13 chick DRG neurons were cultured in DRG media (F-12 medium. 10% FBS, 1% penicillin/streptomycin, 1% L-glutamine, 50 ng/ml NGF) in the presence of virus for 24 hours, fixed with 4% paraformaldehyde/20% sucrose in PBS and double stained with anti-βIII tubulin (Covance, Berkeley, Calif.) and anti-V5 antibody (Sigma Chemical Co. Oakville, Ontario). Neurite outgrowth lengths per cell were assessed using Image J, a public domain JAVA image processing program as previously described (Fournier et al., 2003).

[2] = molecular target: T1, binding between FLAG-RhoA63L and myc-ROCK (Homo sapiens, UniProt P61586, Q63L); experiment: Co-immunoprecipitation of FLAG-RhoA63L and myc-ROCK in co-transfected HEK293T cells; format: cell-based; settings: FIG. 7d
T1 construct: expressed in transfected cells; host or cells: HEK293T
Experimental: (§2) HEK 293T cells were grown to sub-confluence and transfected with Lipofectamine 2000 according to manufacturer instructions (Invitrogen, Burlington, Ontario), washed twice with ice-cold PBS and lysed in lysis buffer A (50 mM Tris, pH 7.4, 150 mM NaCl, 1 mM EDTA, 1% (v/v) Triton X-100, 1 mM Na3VO4, 1 mM NaF, 1 mM PMSF and CØmplete protease inhibitors (Roche Diagnostics, Laval, PQ)). Lysates were pre-cleared with protein A/G-agarose (Santa Cruz Biotechnology, Santa Cruz, Calif.) and subjected to immunoprecipitation with myc-agarose or V5-agarose (Sigma Chemical Co., Oakville, Ontario). After washing 3 times with ice-cold PBS, bound protein was eluted with SDS and immunoblotted with anti-Myc (9E10, 1:1000; Sigma Chemical Co., Oakville, Ontario) or anti-V5 (1:5000; Invitrogen, Burlington, Ontario). For time course experiments, PC12 cells were transfected for 24 hours using Lipofectamine 2000 (Invitrogen, Burlington, Ontario) and differentiated with 50 ng/ml nerve growth factor (NGF; Upstate Biotechnology, Waltham, Mass.) for 24 hours. Cells were treated with Nogo-P4 peptide for the indicated period of time at 37° C. Cells were then lysed and proteins were immunoprecipitated as described above.

E13 chick DRG neurons = experiment: Filopodia and neurite branch analysis of HSV-infected DRG growth cones; format: cell-based; settings: overexpression by HSV infection
Experimental: E7-13 chick DRG explants were cultured in DRG media on poly-L-lysine- and laminin-coated substrates for 18 hours. For viral infections, recombinant viral preparations were added to the media 1 hour after plating. After 18 hours, cultures were treated with myelin and fixed with 4% paraformaldehyde/20% sucrose/PBS, permeabilized in 0.2% triton X-100 and double stained with polyclonal anti-RhoA antibody (Santa Cruz Biotechnology, Santa Cruz, Calif.) and anti-CRMP4b or V5 antibody. For filopodia and branch analysis, GFP and CRMP4bV5-infected growth cones were double stained with rhodamine-phalloidin (Molecular Probes, Eugene, Oreg.) and anti-V5 antibody. Filopodial length per growth cone was assessed using Image J, by measuring total filopodial length per growth cone averaged by the total number of filopodia per growth cone. Neurite branches were quantified by counting total branch buds per neurite.

[3] = tested on: dissociated E13 chick DRG neurons; experiment: Neurite outgrowth assay on myelin substrate, HSV-infected neurons; format: cell-based; settings: introduced via recombinant HSV, compared to GFP- or full length CRMP4b-infected neurons, FIG. 8b, d
Experimental: as §1

[4] = tested on: dissociated E13 chick DRG neurons; experiment: Neurite outgrowth assay on aggrecan substrate, HSV-infected neurons; format: cell-based; settings: introduced via recombinant HSV, FIG. 8e
Experimental: as §1

E8 chick DRG neurons = experiment: Sema3A-dependent growth cone collapse assay; format: cell-based; settings: HSV-infected, stimulated 20 min with AP-Sema3A ligand, FIG. 8f
Experimental: […] Sema3A-AP or AP conditioned media was prepared as described previously (Takahashi et al., 1998). Explants were stimulated with Sema3A-AP- or AP-conditioned media at indicated concentrations for 20 min and fixed with 4% paraformaldehyde, 20% sucrose and 0.1M NaPO4. Explants were stained with rhodamine phalloidin and assessed for growth cone collapse as described (Luo et al., 1993).

CRMP4b-RhoA binding = molecular target: T2, CRMP4b-RhoA binding (Homo sapiens, UniProt P61586); experiment: CRMP-RhoA co-immunoprecipitation, full length CRMP4b binding to RhoA in co-transfected HEK293T cells; format: cell-based, rat; settings: co-transfection with myc-RhoAWT and CRMP4-V5, myc-immunoprecipitation, FIG. 7c
T2 construct: expressed in transfected cells; host or cells: HEK293T
Experimental: as §2

CRMP4a-RhoA binding = molecular target: T3, CRMP4a-RhoA binding (Homo sapiens, UniProt P61586); experiment: CRMP-RhoA co-immunoprecipitation, CRMP4a binding to RhoA in co-transfected HEK293T cells; format: cell-based, rat; settings: co-transfection with myc-RhoAWT and CRMP4-V5, myc-immunoprecipitation, FIG. 7c
T3 construct: expressed in transfected cells; host or cells: HEK293T
Experimental: as §2

T1 sequence (P61586 1-190 Q63L limits assumed): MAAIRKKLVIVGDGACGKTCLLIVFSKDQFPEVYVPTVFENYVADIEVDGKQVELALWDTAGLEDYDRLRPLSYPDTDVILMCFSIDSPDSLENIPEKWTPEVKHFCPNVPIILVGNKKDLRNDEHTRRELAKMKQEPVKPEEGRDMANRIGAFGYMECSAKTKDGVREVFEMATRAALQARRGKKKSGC
T3 sequence (P61586 1-190 limits assumed): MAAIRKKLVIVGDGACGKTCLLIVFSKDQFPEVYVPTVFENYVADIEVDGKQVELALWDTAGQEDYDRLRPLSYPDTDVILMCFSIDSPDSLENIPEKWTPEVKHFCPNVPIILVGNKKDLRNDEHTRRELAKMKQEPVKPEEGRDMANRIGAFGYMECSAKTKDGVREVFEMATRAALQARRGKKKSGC
T2 sequence (P61586 1-190 limits assumed): as above

CRMP4b-V5: full length rat CRMP4b (SEQ ID NO: 1) with V5-His tag, overexpressed via HSV or plasmid
basal neurite outgrowth on permissive control (laminin) substrate [1]: not sufficient to mimic myelin inhibitory responses | effect on binding between FLAG-RhoA63L and myc-ROCK [2]: does not affect the binding between FLAG-RhoA63L and myc-ROCK | branches per neurite (E13 chick DRG neurons; average (GFP-infected: 2), FIG. 5g): 8 branches per neurite | filopodia length increase versus GFP-infected growth cones (E13 chick DRG neurons; average, FIG. 5e, f, g): 70%

C4RIP-V5: CRMP4b-RhoA Inhibitory Peptide: first 126 residues of the unique amino terminal domain of CRMP4b (SEQ ID NO: 2), fused to a V5-epitope tag
basal neurite outgrowth on permissive control (laminin) substrate [1]: does not promote basal DRG outgrowth on permissive control substrates | effect on binding between FLAG-RhoA63L and myc-ROCK [2]: does not diminish binding between FLAG-RhoA63L and myc-ROCK | neurite outgrowth on myelin substrate (myelin-dependent outgrowth inhibition) [3]: significantly attenuates myelin-dependent outgrowth inhibition | neurite outgrowth on aggrecan [4]: promotes neurite outgrowth on aggrecan | Sema3A-dependent growth cone collapse (E8 chick DRG neurons): no effect on Sema3A-dependent growth cone collapse | effect on RhoA binding to full length CRMP4b (CRMP4b-RhoA binding): significantly diminishes RhoA binding to full length CRMP4b | effect on RhoA binding to CRMP4a (CRMP4a-RhoA binding): without affecting binding to CRMP4a
